Measurements taken from patent US20180170903A1, “PYRIDIN-3-YL ACETIC ACID DERIVATIVES AS INHIBITORS OF HUMAN IMMUNODEFICIENCY VIRUS REPLICATION” (ViiV HEALTHCARE UK (NO.5) LIMITED, priority 2015, published 2018).
Like-named read-outs stand apart in the source and are kept apart here.

Test system: NL-RLuc virus (recombinant HIV NL4-3 proviral clone with Renilla Luciferase) in MT-2 cells
Experiment: Inhibition of HIV Replication (NL-RLuc luciferase reporter virus, MT-2 cells)
Format: cell-based
Conditions: MT2, 120 h
From the text: Inhibition of HIV Replication:
A recombinant NL-RLuc proviral clone was constructed in which a section of the nef gene from NL4-3 was replaced with the Renilla Luciferase gene. This virus is fully infectious and can undergo multiple cycles of replication in cell culture. In addition, the luciferous reporter provides a simple and easy method for quantitating the extent of virus growth and consequently, the antiviral activity of test compounds. The plasmid pNLRLuc contains the proviral NL-Rluc DNA cloned into pUC 18 at the PvuII site. The NL-RLuc virus was prepared by transfection of 293T cells with the plasmid pNLRLuc. Transfections were performed using the LipofectAMINE PLUS kit from Invitrogen (Carlsbad, Calif.) according to the manufacturer and the virus generated was titered in MT-2 cells. For susceptibility analyses, the titrated virus was used to infect MT-2 cells in the presence of compound, and after 5 days of incubation, cells were processed and quantitated for virus growth by the amount of expressed luciferase. Assay media was RPMI 1640 supplemented with 10% heat inactivated fetal bovine serum (FBS), 100 units/ml penicillin G/100 units/ml streptomycin, 10 mM HEPES buffer pH 7.55 and 2 mM L-glutamine. The results from at least 2 experiments were used to calculate the EC50 values. Luciferase was quantitated using the Dual Luciferase kit from Promega (Madison, Wis.). Susceptibility of viruses to compounds was determined by incubation in the presence of serial dilutions of the compound. The 50% effective concentration (EC50) was calculated by using the exponential form of the median effect equation where (Fa)=1/[1+(ED50/drug conc.)^m](Johnson V A, Byington R T. Infectivity Assay. In Techniques in HIV Research. ed. Aldovini A, Walker B D. 71-76. New York: Stockton Press. 1990). Activity equal to A refers to a compound having an EC50≤100 nM, while B and C denote compounds having an EC50 between 100 nM and 1 uM (B) or >1 uM (C).

SMILES | EC50 (read-out: Activity) | EC50 (read-out: EC50 μM)
Cc1nc(C)c([C@H](OC(C)(C)C)C(=O)O)c(N2CCC(C)(C)CC2)c1-c1ccc(CN(Cc2ccc(F)cc2)C(=O)c2cccc(F)c2)cc1 [Example 41, (S)-2-(tert-butoxy)-2-(4-(4,4-dimethylpiperidin-1-yl)-5-(4-((3-fluoro-N-(4-fluorobenzyl)benzamido)methyl)phenyl)-2,6-dimethylpyridin-3-yl)acetic acid] | < 0.1 µM | 0.015 µM
Cc1nc(C)c([C@H](OC(C)(C)C)C(=O)O)c(N2CCC(C)(C)CC2)c1-c1ccc(CN(Cc2ccc(F)cc2)C(=O)c2cccs2)cc1 [Example 44, (S)-2-(tert-butoxy)-2-(4-(4,4-dimethylpiperidin-1-yl)-5-(4-((N-(4-fluorobenzyl)thiophene-2-carboxamido)methyl)phenyl)-2,6-dimethylpyridin-3-yl)acetic acid] | < 0.1 µM | –
Cc1cc(C(=O)N(Cc2ccc(F)cc2)Cc2ccc(-c3c(C)nc(C)c([C@H](OC(C)(C)C)C(=O)O)c3N3CCC(C)(C)CC3)cc2)c(C)o1 [Example 29, (S)-2-(terr-butoxy)-2-(4-(4,4-dimethylpiperidin-1-yl)-5-(4-((N-(4-fluorobenzyl)-2,5-dimethylfuran-3-carboxamido)methyl)phenyl)-2,6-dimethylpyridin-3-yl)acetic acid] | < 0.1 µM | –
Cc1nc(C)c([C@H](OC(C)(C)C)C(=O)O)c(N2CCC(C)(C)CC2)c1-c1ccc(CN(Cc2ccc(F)cc2)C(=O)COc2ccccc2)cc1 [Example 30, (S)-2-(tert-butoxy)-2-(4-(4,4-dimethylpiperidin-1-yl)-5-(4-((N-(4-fluorobenzyl)-2-phenoxyacetamido)methyl)phenyl)-2,6-dimethylpyridin-3-yl)acetic acid] | 0.1 to 1 µM | 0.118 µM
Cc1nc(C)c([C@H](OC(C)(C)C)C(=O)O)c(N2CCC(C)(C)CC2)c1-c1ccc(CN(Cc2ccc(F)cc2)C(=O)c2ccc(F)cc2)cc1 [Example 28, (S)-2-(tert-butoxy)-2-(4-(4,4-dimethylpiperidin-1-yl)-5-(4-((4-fluoro-N-(4-fluorobenzyl)benzamido)methyl)phenyl)-2,6-dimethylpyridin-3-yl)acetic acid] | < 0.1 µM | –
Cc1ccc(CNCc2ccc(-c3c(C)nc(C)c([C@H](OC(C)(C)C)C(=O)O)c3N3CCC(C)(C)CC3)cc2)cc1 [Example 16, (S)-2-(tert-butoxy)-2-(4-(4,4-dimethylpiperidin-1-yl)-2,6-dimethyl-5-(4-(((4-methylbenzyl)amino)methyl)phenyl)pyridin-3-yl)acetic acid] | < 0.1 µM | –
Cc1ccccc1C(=O)N(Cc1ccc(F)cc1)Cc1ccc(-c2c(C)nc(C)c([C@H](OC(C)(C)C)C(=O)O)c2N2CCC(C)(C)CC2)cc1 [Example 43, (S)-2-(tert-butoxy)-2-(4-(4,4-dimethylpiperidin-1-yl)-5-(4-((N-(4-fluorobenzyl)-2-methylbenzamido)methyl)phenyl)-2,6-dimethylpyridin-3-yl)acetic acid] | < 0.1 µM | –
Cc1nc(C)c([C@H](OC(C)(C)C)C(=O)O)c(N2CCC(C)(C)CC2)c1-c1ccc(CNCc2ccc(C(=O)O)cc2)cc1 [Example 19, (S)-4-(((4-(5-(tert-butoxy(carboxy)methyl)-4-(4,4-dimethylpiperidin-1-yl)-2,6-dimethylpyridin-3-yl)benzyl)amino)methyl)benzoic acid] | > 1 µM | 2.07 µM
